For data set [1], the system named is mucins of the fibrillar reticulum. Briefly: glycopeptide analysis of bronchial mucus from orally treated patients. It counts as in vivo. The conditions noted are these: comparative test, 70 mg/kg/die. On the procedure:
The analysis of the glycopeptides of the bronchial mucus obtained by hydrolysis with papaine (24 hours at 37°C, pH 6.5) followed by pronasis (24 hours at 37°C at pH 7.3) and fractionation by electrophoresis on agarose at pH 8.6 and finally chromatografy on DEAE -Sephadex A/25 column has shown an average increasing of about 100% of the sialoglycopeptides (hydrophil- ics) with a reduction higher than 60% of the weakly acid glycopeptides and neutral mucins (hydrophobics) followed by lowering of the viscosity.

The subject of data set [2] is bronchial ipersecretion induced with S02. Briefly: bronchial hypersecretion induced with SO2 in rats. The class given is in vivo. The note with it: oral, two weeks, 0.5 g/kg/die (esters: equivalent to 0.5 g/kg/die of free acid); 300 ppm SO2 two hours a day, total 90 hours; untreated animals 80%. The source says:
Under the same experimental conditions in tests carried out with Carbocysteine at the same dose (0.5 g/kg/die) the percentage of the non protected animals was 25%.

Data set [3] relates to intrabronchial desquamation and the reactive mucousa iperplasye. Briefly: CCl nebulization in rats, bronchial desquamation and mucosal hyperplasia. It counts as in vivo. The note with it: oral 0.5 g/kg/die (esters: equivalent to 0.5 g/kg/die of the acid); nebulization 10 days, 5 nebulizations for 2 minutes a day.
A further data set is described as follows: in vivo. The conditions noted are these: ip, i.p. administration in the mouse, buffered with sodium bicarbonate at pH 6, read-out: DL50 (the source's name).

SMILES strings stand for the structures.

As to `N[C@@H](CSCC(=O)O)C(=O)O` [Carbocysteine], in data set [1], the “average increasing of the sialoglycopeptides” value is recorded as not above 75%; the “decreasing of the glycopeptides and mucins” value is not above 45%. For the same compound, the “bronchial obstruction, percentage of treated (non protected) animals” value in data set [2] is 25%. Moreover, in data set [3], the “hindering of the intrabronchial desquamation and the reactive mucousa iperplasye” value was not above 40%. In addition, the LD50 in the data set “in vivo” turned out to be 5180 mg/kg.

Consider `CC(SCC(=O)O)C(=O)NCC(=O)O` (stereo not shown) [S-carboxymethyl-propionyl-glycine], for which the LD50 in “in vivo” was 5420 mg/kg.

On to `O=C(O)CNC(=O)CCSCC(=O)O` [beta-(S-carboxvmethvl)-propionvl-qlvcine], for which the LD50 in “in vivo” was 5500 mg/kg.

For the origin of these results see EP0015544A2, “Derivatives of the mercaptopropionamido-acetic acid, process for the preparation thereof and compositions” (ZAMBON S.p.A., priority 1979, dated 1980).
